Tests used:
[1] = Lipophilicity (logP) of Compound 1; format: physicochemical
[2] = Aqueous solubility of Compound 1; format: physicochemical; settings: under acidic to neutral conditions

With `Cn1c(=O)n(CCCO)c(=O)c2c1nc(Oc1cccc(OC(F)(F)F)c1)n2Cc1ccc(Cl)cc1` [Compound 1, 7-(4-chlorobenzyl)-1-(3-hydroxypropyl)-3-methyl-8-(3-(trifluoromethoxy)-phenoxy)-3,7-dihydro-1H-purine-2,6-dione] the logP [1] was 5.2 and the aqueous solubility [2] was “low aqueous solubility”.
